From publication PMC11240139, “Exploring the antitumor potential of novel quinoline derivatives via tubulin polymerization inhibition in breast cancer; design, synthesis and molecular docking” (RSC Advances, 2024)

Tests used:
Test in all cases: NCI-60 SRB cytotoxicity screen
Format in all cases: cell-based
COLO 205 (colon cancer) = conditions: Homo sapiens
LOX IMVI (melanoma) = test system: LOX IMVI (melanoma)
[1] = test system: NCI-H226 (non-small cell lung cancer)
[2] = test system: A549/ATCC (non-small cell lung cancer)
[3] = test system: HOP-62 (non-small cell lung cancer)
786-0 (renal cancer) = test system: 786-0 (renal cancer)
ACHN (renal cancer) = test system: ACHN (renal cancer)
SK-MEL-5 (melanoma) = test system: SK-MEL-5 (melanoma)
RXF 393 (renal cancer) = test system: RXF 393 (renal cancer)
K-562 (leukemia) = test system: K-562 (leukemia)
MDA-MB-435 (melanoma) = test system: MDA-MB-435 (melanoma)
MOLT-4 (leukemia) = test system: MOLT-4 (leukemia)
[4] = test system: NCI-H522 (non-small cell lung cancer)
HS 578T (breast cancer) = test system: HS 578T (breast cancer)
SN12C (renal cancer) = test system: SN12C (renal cancer)
OVCAR-3 (ovarian cancer) = test system: OVCAR-3 (ovarian cancer)
[5] = test system: HOP-92 (non-small cell lung cancer)
[6] = Homo sapiens, five-dose assay, read-out: LC50 (the source's name)
[7] = Homo sapiens, single dose 10 μM, read-out: growth inhibition (GI%)
[8] = Homo sapiens, NCI-H226, five-dose assay
[9] = Homo sapiens, HOP-62, five-dose assay
[10] = Homo sapiens, SK-MEL-5, five-dose assay
[11] = Homo sapiens, RXF 393, five-dose assay
[12] = Homo sapiens, NCI-H522, five-dose assay
[13] = Homo sapiens, OVCAR-3, five-dose assay
[14] = Homo sapiens, HOP-92, five-dose assay

CCc1cccc2cc(-c3cc(-c4cc(OC)c(OC)c(OC)c4)[nH]c(=O)c3C#N)c(Cl)nc12 [Compound 4c, 4-(2-Chloro-8-ethylquinolin-3-yl)-2-oxo-6-(3,4,5-trimethoxyphenyl)-1,2-dihydropyridine-3-carbonitrile]
LC50 (COLO 205 (colon cancer); COLO 205, five-dose assay): > 100 µM
inhibition at 10 µM (COLO 205 (colon cancer); COLO 205, single dose 10 μM, read-out: growth inhibition (GI%)): < 10%
GI50 (LOX IMVI (melanoma); Homo sapiens, five-dose assay): 13.5 µM
CC50 (LOX IMVI (melanoma); [6]): 81.3 µM
inhibition at 10 µM (LOX IMVI (melanoma); [7]): 91.6%
TGI (LOX IMVI (melanoma); five-dose assay): 33.20 µM
GI50 [1, 8]: 10.9 µM
LC50 (lethal concentration, 50% cell kill) [1, 8]: 97.7 µM
inhibition at 10 µM ([1]; Homo sapiens, NCI-H226, single dose 10 μM, read-out: growth inhibition (GI%)): > 100%
TGI ([1]; NCI-H226, five-dose assay): 32.60 µM
growth inhibition (GI%) ([1]; NCI-H226, single dose 10 μM): lethal effect
GI50 ([2]; Homo sapiens, five-dose assay): 12.2 µM
CC50 [2, 6]: > 100 µM
inhibition at 10 µM [2, 7]: 88.2%
TGI ([2]; five-dose assay): 48.70 µM
TGI ([3]; HOP-62, five-dose assay): 78.90 µM
GI50 [3, 9]: 20.7 µM
LC50 [3, 9]: > 100 µM
inhibition at 10 µM ([3]; Homo sapiens, HOP-62, single dose 10 μM, read-out: growth inhibition (GI%)): 87.9%
TGI (786-0 (renal cancer); 786-0, five-dose assay): 26.70 µM
growth inhibition (GI%) (786-0 (renal cancer); 786-0, single dose 10 μM): lethal effect
GI50 (786-0 (renal cancer); Homo sapiens, 786-0, five-dose assay): 11.7 µM
CC50 (786-0 (renal cancer); Homo sapiens, 786-0, five-dose assay, read-out: LC50 (the source's name)): 61.1 µM
inhibition at 10 µM (786-0 (renal cancer); Homo sapiens, 786-0, single dose 10 μM, read-out: growth inhibition (GI%)): > 100%
GI50 (ACHN (renal cancer); Homo sapiens, five-dose assay): 15.6 µM
LC50 (ACHN (renal cancer); Homo sapiens, five-dose assay): 61.8 µM
inhibition at 10 µM (ACHN (renal cancer); [7]): 75.7%
TGI (ACHN (renal cancer); five-dose assay): 31.00 µM
GI50 (SK-MEL-5 (melanoma); [10]): 17.5 µM
LC50 (SK-MEL-5 (melanoma); [10]): > 100 µM
inhibition at 10 µM (SK-MEL-5 (melanoma); Homo sapiens, SK-MEL-5, single dose 10 μM, read-out: growth inhibition (GI%)): 78.6%
TGI (SK-MEL-5 (melanoma); SK-MEL-5, five-dose assay): 90.20 µM
GI50 (RXF 393 (renal cancer); [11]): 2.21 µM
LC50 (RXF 393 (renal cancer); [11]): 35.4 µM
inhibition at 10 µM (RXF 393 (renal cancer); Homo sapiens, RXF 393, single dose 10 μM, read-out: growth inhibition (GI%)): > 100%
TGI (RXF 393 (renal cancer); RXF 393, five-dose assay): 6.69 µM
growth inhibition (GI%) (RXF 393 (renal cancer); RXF 393, single dose 10 μM): lethal effect
GI50 (K-562 (leukemia); Homo sapiens, K562, K-562, five-dose assay): 7.72 µM
CC50 (K-562 (leukemia); Homo sapiens, K562, K-562, five-dose assay, read-out: LC50 (the source's name)): > 100 µM
inhibition at 10 µM (K-562 (leukemia); Homo sapiens, K-652 [sic], single dose 10 μM, read-out: growth inhibition (GI%)): 31.4%
TGI (K-562 (leukemia); K-562, five-dose assay): 43.80 µM
GI50 (MDA-MB-435 (melanoma); Homo sapiens, MDA-MB-435): 32.6 µM
inhibition at 10 µM (MDA-MB-435 (melanoma); Homo sapiens, MDA-MB-435, read-out: growth inhibition (GI%)): 56.5%
LC50 (lethal concentration, 50% net cell kill) (MDA-MB-435 (melanoma); Homo sapiens, MDA-MB-435, five-dose assay): > 100 µM
TGI (MDA-MB-435 (melanoma); MDA-MB-435, five-dose assay): >100 µM
GI50 (MOLT-4 (leukemia); Homo sapiens, MOLT-4, five-dose assay): 8.17 µM
CC50 (MOLT-4 (leukemia); Homo sapiens, MOLT-4, five-dose assay, read-out: LC50 (the source's name)): > 100 µM
inhibition at 10 µM (MOLT-4 (leukemia); Homo sapiens, MOLT-4, single dose 10 μM, read-out: growth inhibition (GI%)): 76.4%
TGI (MOLT-4 (leukemia); MOLT-4, five-dose assay): 79.90 µM
GI50 [4, 12]: 19.1 µM
LC50 (concentration causing 50% net cell kill) [4, 12]: > 100 µM
inhibition at 10 µM ([4]; Homo sapiens, NCI-H522, single dose 10 μM, read-out: growth inhibition (GI%)): > 100%
TGI ([4]; NCI-H522, five-dose assay): >100 µM
growth inhibition (GI%) ([4]; NCI-H522, single dose 10 μM): lethal effect
GI50 (HS 578T (breast cancer); Homo sapiens, five-dose assay): 2.38 µM
LC50 (50% lethal concentration) (HS 578T (breast cancer); Homo sapiens, five-dose assay): > 100 µM
inhibition at 10 µM (HS 578T (breast cancer); [7]): > 100%
TGI (HS 578T (breast cancer); five-dose assay): 7.26 µM
growth inhibition (GI%) (HS 578T (breast cancer); single dose 10 μM): lethal effect
GI50 (SN12C (renal cancer); Homo sapiens, five-dose assay): 10.3 µM
LC50 (concentration killing 50% of cells) (SN12C (renal cancer); Homo sapiens, five-dose assay): 61.8 µM
inhibition at 10 µM (SN12C (renal cancer); [7]): > 100%
TGI (SN12C (renal cancer); five-dose assay): 25.20 µM
growth inhibition (GI%) (SN12C (renal cancer); single dose 10 μM): lethal effect
GI50 (OVCAR-3 (ovarian cancer); [13]): 14.2 µM
LC50 (50% lethal concentration) (OVCAR-3 (ovarian cancer); [13]): 62.3 µM
inhibition at 10 µM (OVCAR-3 (ovarian cancer); Homo sapiens, OVCAR-3, single dose 10 μM, read-out: growth inhibition (GI%)): > 100%
TGI (OVCAR-3 (ovarian cancer); OVCAR-3, five-dose assay): 29.80 µM
growth inhibition (GI%) (OVCAR-3 (ovarian cancer); OVCAR-3, single dose 10 μM): lethal effect
TGI ([5]; HOP-92, five-dose assay): 9.68 µM
growth inhibition (GI%) ([5]; HOP-92, single dose 10 μM): lethal effect
GI50 [5, 14]: 2.37 µM
LC50 (lethal concentration 50) [5, 14]: > 100 µM
inhibition at 10 µM ([5]; Homo sapiens, HOP-92, single dose 10 μM, read-out: growth inhibition (GI%)): > 100%
